Assay results published in patent publication US8278293B2, “Diazo bicyclic Smac mimetics and the uses thereof” (The Regents of the University of Michigan, priority 2007, dated 2012).
Where two headings read alike, the source gives them in different places.

Key:
[1] = system: MDA-MB-231 human breast cancer cell line; experiment: Cell growth inhibition, WST-8 assay, MDA-MB-231; type: cell-based; settings: for cellular activity in MDA-MB-231 compared with SM-122: relative to SM-122
Experimental: (§1) The effect of the compounds of the present invention on the growth of various cancer cell lines was tested. Cells were seeded in 96-well flat bottom cell culture plates at a density of 3000 cells/well with a tested compound and incubated at 37° C. in an atmosphere of 95% air and 5% CO2 for 4 days. […] Dojindo Molecular Technologies, Inc., Gaithersburg, Md.). […] The absorbance of the samples was measured at 450 nm using a ULTRA Tecan Reader (Molecular Device). […] The ability of SM-406 to inhibit cell growth as a single agent was tested in the MDA-MB-231 breast cancer cell line, SK-OV-3 and OVCAR-4 ovarian cancer cell lines and SK-MeI-2 melanoma cancer cell line. Cells were treated for 4 days. Cell growth was determined using a WST-based assay.

[2] = system: SK-OV-3 ovarian cancer cell line; experiment: Cell growth inhibition, WST-8 assay, SK-OV-3; type: cell-based; settings: for IC50: 4 days, WST-8, read-out: SK-OV-3 IC50; for cellular activity in SK-OV-3 compared with SM-122: relative to SM-122
Experimental: as §1

XIAP BIR3 = XIAP BIR3 (Homo sapiens, UniProt P98170); experiment: Fluorescence polarization (FP) based competitive binding assay to XIAP BIR3; design: human XIAP (residues 241-356) fused to His-tag; His-tag; settings: for IC50: FP binding, XIAP BIR3 30 nM, SM5F 5 nM; for binding affinity to XIAP BIR3 compared with SM-122: relative to carbocyclic analog SM-122
Chain of XIAP BIR3 (P98170 241-356): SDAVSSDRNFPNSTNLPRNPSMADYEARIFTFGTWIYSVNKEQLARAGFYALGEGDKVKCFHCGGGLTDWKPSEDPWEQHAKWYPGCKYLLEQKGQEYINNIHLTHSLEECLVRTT

[3] = Homo sapiens, MDA-MB-231, 96 h, 4 days, WST-8, read-out: MDA-MB-231 IC50
[4] = Homo sapiens, MDA-MB-231, 96 h, read-out: MDA-MB-231 IC50 (μM)

Row | Structure (SMILES) | IC50 [1, 3] [µM] | IC50 ([2]; Homo sapiens, SK-OV-3, 96 h) [nM] | IC50 (XIAP BIR3) [nM] | other results
1 | CN[C@@H](C)C(=O)N[C@H]1CN(C(C)=O)CC[C@H]2CCC(C(=O)NC(c3ccccc3)c3ccccc3)N2C1=O (stereo partly drawn) [SM-330] | – | – | – | IC50 [1, 4]: < 1 µM
2 | CN[C@@H](C)C(=O)N[C@H]1CN(C(=O)Cc2ccccc2)CCC[C@H]2CC[C@@H](C(=O)NC(c3ccccc3)c3ccccc3)N2C1=O [SM-207] | – | – | < 1000 | IC50 ([1]; 4 days, WST-8, listed as SH-207, read-out: MDA-MB-231 IC50): < 1 µM; IC50 ([1]; 4 days, WST-8, read-out: MDA-MB-231 IC50): < 10 µM; IC50 ([2]; listed as SH-207): < 1000 nM; IC50 [2]: < 10000 nM
3 | CN[C@@H](C)C(=O)N[C@H]1CN(C(=O)CC(C)C)CC[C@H]2CC[C@@H](C(=O)NCC(c3ccccc3)c3ccccc3)N2C1=O [SM-432] | < 10 | < 10000 | < 1000 | –
4 | CC[C@H](NC)C(=O)N[C@H]1CN(C(=O)CC(C)C)CC[C@H]2CC[C@@H](C(=O)NC(c3ccccc3)c3ccccc3)N2C1=O [SM-212] | < 10 | < 10000 | < 1000 | –
5 | CN[C@@H](C)C(=O)N[C@H]1CN(C(=O)CN2CCNC(=O)C2)CC[C@H]2CC[C@@H](C(=O)NC(c3ccccc3)c3ccccc3)N2C1=O [SM-412] | > 1 | > 1000 | < 10000 | –
6 | CN[C@@H](C)C(=O)N[C@H]1CNCC[C@H]2CC[C@@H](C(=O)NC(c3ccccc3)c3ccccc3)N2C1=O [SM-227] | < 10 | < 10000 | – | –
7 | CN[C@@H](C)C(=O)N[C@H]1CN(C(=O)C[C@H]2CC[C@H](O)C2)CC[C@H]2CC[C@@H](C(=O)NC(c3ccccc3)c3ccccc3)N2C1=O [SM-416] | < 10 | < 10000 | < 1000 | –
8 | CN[C@@H](C)C(=O)N[C@H]1CN(Cc2ccccc2)CC[C@H]2CC[C@@H](C(=O)NC(c3ccccc3)c3ccccc3)N2C1=O [YP-246P] | – | – | – | IC50 [1, 4]: > 1 µM; cellular activity in MDA-MB-231 compared with SM-122 [1]: less than that of SM-122; cellular activity in SK-OV-3 compared with SM-122 [2]: less than that of SM-122; binding affinity to XIAP BIR3 compared with SM-122 (XIAP BIR3): less than that of SM-122
9 | CN[C@@H](C)C(=O)N[C@H]1CN(C(=O)CCn2ccnc2)CC[C@H]2CC[C@@H](C(=O)NC(c3ccccc3)c3ccccc3)N2C1=O [SM-414] | < 100 | < 100000 | < 1000 | –
10 | CN[C@@H](C)C(=O)N[C@H]1CN(C(=O)CC(C)C)CC[C@H]2CC[C@@H](C(=O)NCc3ccc(C(F)(F)F)cc3)N2C1=O [SM-426] | < 10 | < 10000 | < 10000 | –
11 | CN[C@@H](C)C(=O)N[C@H]1CN(C(=O)C(C)C)CC[C@H]2CC[C@@H](C(=O)NC(c3ccc(F)cc3)c3ccc(F)cc3)N2C1=O [SM-209] | < 10 | < 10000 | < 1000 | –
12 | CN[C@@H](C)C(=O)N[C@H]1CN(C(=O)C[C@@H]2CCOC2)CC[C@H]2CC[C@@H](C(=O)NC(c3ccccc3)c3ccccc3)N2C1=O [SM-419] | < 10 | < 10000 | < 1000 | –
13 | CN[C@@H](C)C(=O)N[C@H]1CN(C(=O)CC(C)C)CC[C@H]2CC[C@@H](C(=O)NC3CCCCC3)N2C1=O [SM-423] | < 100 | < 100000 | < 10000 | –
14 | CN[C@@H](C)C(=O)N[C@H]1CN(C)CC[C@H]2CC[C@@H](C(=O)NC(c3ccccc3)c3ccccc3)N2C1=O [YP-245P3] | – | – | – | IC50 [1, 4]: > 1 µM; cellular activity in MDA-MB-231 compared with SM-122 [1]: less than that of SM-122; cellular activity in SK-OV-3 compared with SM-122 [2]: less than that of SM-122; binding affinity to XIAP BIR3 compared with SM-122 (XIAP BIR3): less than that of SM-122
15 | CN[C@@H](C)C(=O)N[C@H]1CN(C(=O)CC(C)C)CC[C@H]2CC[C@@H](C(=O)NCc3cccc(-c4ccccc4)c3)N2C1=O [SM-429] | < 10 | < 10000 | < 1000 | –
16 | CN[C@@H](C)C(=O)N[C@H]1CN(C(=O)CC(C)C)CC[C@H]2CC[C@@H](CN(Cc3ccccc3)C(C)=O)N2C1=O [SM-230] | < 100 | < 100000 | < 10000 | –
17 | CN[C@@H](C)C(=O)N[C@H]1CN(C(=O)CC(C)C)CC[C@H]2CC[C@@H](C(=O)N[C@H]3CCc4ccccc43)N2C1=O [SM-425] | < 10 | < 10000 | < 1000 | –
18 | CN[C@@H](C)C(=O)N[C@H]1CN(C(=O)[C@H]2CC[C@H](O)C2)CC[C@H]2CC[C@@H](C(=O)NC(c3ccccc3)c3ccccc3)N2C1=O [SM-418] | < 10 | < 10000 | < 1000 | –
19 | CN[C@@H](C)C(=O)N[C@H]1CN(C(=O)CC(C)C)CC[C@H]2CC[C@@H](C(=O)NCc3cccc4ccccc34)N2C1=O [SM-430] | < 10 | < 10000 | < 1000 | –

More lines, main results first:

Row | IC50 [1, 3] [µM] | IC50 ([2]; Homo sapiens, SK-OV-3, 96 h) [nM] | IC50 (XIAP BIR3) [nM] | Structure (SMILES) | other results
20 | < 10 | < 10000 | < 10000 | CN[C@@H](C)C(=O)N[C@H]1CN(C(=O)CC(C)C)CC[C@H]2CC[C@@H](C(=O)NCc3ccc(-c4ccccc4)cc3)N2C1=O [SM-434] | –
21 | < 1 | < 1000 | < 1000 | CCCC(=O)N1CC[C@H]2CC[C@@H](C(=O)NC(c3ccccc3)c3ccccc3)N2C(=O)[C@@H](NC(=O)[C@H](C)NC)C1 [SM-409] | –
22 | < 1 | < 1000 | < 1000 | CN[C@@H](C)C(=O)N[C@H]1CN(C(=O)CC(C)C)CC[C@H]2CC[C@@H](C(=O)NC(c3ccc(F)cc3)c3ccc(F)cc3)N2C1=O [SM-210] | –
23 | < 1 | < 1000 | < 1000 | CN[C@@H](C)C(=O)N[C@H]1CN(C(=O)CCC(C)C)CC[C@H]2CC[C@@H](C(=O)NC(c3ccccc3)c3ccccc3)N2C1=O [SM-420] | –
24 | < 1 | < 1000 | < 1000 | CN[C@@H](C)C(=O)N[C@H]1CN(C(=O)CCc2ccccc2)CC[C@H]2CC[C@@H](C(=O)NC(c3ccccc3)c3ccccc3)N2C1=O [SM-408] | –
25 | < 1 | – | < 1000 | CN[C@@H](C)C(=O)N[C@H]1CN(C(=O)Cc2ccc(F)cc2F)CC[C@H]2CCC(C(=O)NC(c3ccccc3)c3ccccc3)N2C1=O (stereo partly drawn) [SM-356] | –
26 | < 1 | < 1000 | < 1000 | CN[C@@H](C)C(=O)N[C@H]1CN(C(=O)CC2CCCC2)CC[C@H]2CC[C@@H](C(=O)NC(c3ccccc3)c3ccccc3)N2C1=O [SM-405] | –
27 | < 10 | < 10000 | < 1000 | CC(C)CC(=O)N1CC[C@H]2CC[C@@H](C(=O)NC(c3ccccc3)c3ccccc3)N2C(=O)[C@@H](NC(=O)[C@H](C)NCCO)C1 [SM-213] | –
28 | < 10 | < 10000 | < 1000 | CN[C@@H](C)C(=O)N[C@H]1CN(C(=O)CC(C)C)CC[C@H]2CC[C@@H](C(=O)NCc3ccccc3-c3ccccc3)N2C1=O [SM-433] | –
29 | < 1 | < 1000 | < 100 | CN[C@@H](C)C(=O)N[C@H]1CN(C(=O)Cc2ccc(F)cc2)CC[C@H]2CC[C@@H](C(=O)NC3CCCc4ccccc43)N2C1=O (stereo partly drawn) [SM-377] | –
30 | < 1 | < 1000 | < 1000 | CN[C@@H](C)C(=O)N[C@H]1CN(C(=O)Cc2ccccc2)CC[C@H]2CC[C@@H](C(=O)NCc3ccc(F)cc3)N2C1=O [SM-401] | –
31 | < 1 | < 1000 | < 1000 | CN[C@@H](C)C(=O)N[C@H]1CN(C(=O)CC(C)C)CC[C@H]2CC[C@@H](C(=O)NC3CCc4ccccc43)N2C1=O (stereo partly drawn) [SM-431] | –
32 | < 1 | < 1000 | < 1000 | CN[C@@H](C)C(=O)N[C@H]1CN(C(=O)CCc2ccc(F)cc2)CC[C@H]2CC[C@@H](C(=O)NC(c3ccc(F)cc3)c3ccc(F)cc3)N2C1=O [SM-404] | –
33 | < 1 | < 1000 | < 1000 | CN[C@@H](C)C(=O)N[C@H]1CN(C(=O)CCCC(C)C)CC[C@H]2CC[C@@H](C(=O)NC(c3ccccc3)c3ccccc3)N2C1=O [SM-422] | –
34 | < 1 | < 1000 | < 1000 | CN[C@@H](C)C(=O)N[C@H]1CN(C(=O)CCc2ccc(F)cc2)CC[C@H]2CC[C@@H](C(=O)NC(c3ccccc3)c3ccccc3)N2C1=O [SM-407] | –
35 | < 1 | < 1000 | < 100 | CN[C@@H](C)C(=O)N[C@H]1CN(C(=O)Cc2ccccc2)CC[C@H]2CC[C@@H](C(=O)NC3CCCc4ccccc43)N2C1=O (stereo partly drawn) [SM-376] | –
36 | < 1 | < 1000 | < 1000 | CN[C@@H](C)C(=O)N[C@H]1CN(C(=O)Cc2ccc(F)cc2)CC[C@H]2CCC(C(=O)NC(c3ccccc3)c3ccccc3)N2C1=O (stereo partly drawn) [SM-350] | –
37 | < 1 | < 1000 | < 1000 | CN[C@@H](C)C(=O)N[C@H]1CN(C(=O)Cc2ccc(F)cc2)CC[C@H]2CC[C@@H](C(=O)NCc3ccc(F)cc3)N2C1=O [SM-402] | –
38 | < 1 | < 1000 | < 1000 | CN[C@@H](C)C(=O)N[C@H]1CN(C(=O)CCCc2ccccc2)CC[C@H]2CC[C@@H](C(=O)NC(c3ccccc3)c3ccccc3)N2C1=O [SM-421] | –
39 | < 1 | < 1000 | < 1000 | CN[C@@H](C)C(=O)N[C@H]1CN(C(=O)CC(C)C)CC[C@H]2CC[C@@H](C(=O)N[C@@H]3CCCc4ccccc43)N2C1=O [SM-427] | –
